From US12486301B2, “8-fluoro-4-alkylumbelliferyl α-D-glucopyranoside, biological sterilization indicator including the same and its use in a method of determining efficacy of a sterilization process” (Solventum Intellectual Properties Company, priority 2019, dated 2025)

How the values were obtained:
[1] = tested on: Geobacillus stearothermophilus spores (ATCC 7953); test: Fluorescence from enzyme substrates incubated with Geobacillus stearothermophilus spores in culture media; assay type: cell-based; conditions: 5×10^3 spores, substrate 0.1 mg/mL, 60° C.; for MEASURED FLUORESCENCE, RFU 10 sec: 360 nm excitation/450 nm emission
Experimental: Culture media was prepared by dissolving 5 g/L peptone C (BD 211921) and 12 g/L phytone peptone (BD BBL 211906) in deionized water. The pH was adjusted with 1 N NaOH or 0.1 N HCl, the media brought to volume, and then filter sterilized with a 0.22 micron PES filter. Stock solutions ([…]) of 8′-fluoro-4′-methylumbelliferyl-α-D-glucopyranoside, 6′-fluoro-4′-methylumbelliferyl-α-D-glucopyranoside, and 4-methylumbelliferyl-α-D-glucopyranoside were prepared in DMSO. The aforementioned substrates were added to culture media at a final concentration of 0.1 mg/ml and media were then 0.22 μm filter sterilized.
Culture media (pH 6) containing 8′-fluoro-4′-methylumbelliferyl-[…]-D-glucopyranoside (0.1 mg/mL) was added to two wells (100 microliters per well) of a black 96-well microtiter plate with (NUNC #165301, Thermo Fisher Scientific). A 5 microliter aqueous suspension containing 5×10^3 Geobacillus stearothermophilus spores (ATCC 7953) was added to each well of the microtiter plate. Next, the contents of each well were mixed using a multiple aspiration/delivery sequence with the pipet. […] The top of the plate was covered with an optically clear sealing film (product #4311971, Applied Biosystems Corporation, Foster City, California). The plate was warmed at 60° C. and shaken in a linear direction. Fluorescence readings (360 nm excitation/450 nm emission at 50% gain) were taken from the top of the plate. A reading was taken at an initial time point of 10 seconds and then at +1 minute intervals thereafter. A Synergy Neo2 fluorescence plate reader (BioTek Company, Winooski, Vermont) was used. In Table 1, the mean fluorescence values detected (RFU) at times of 10 seconds, +5 minutes, +10 minutes, and +30 minutes are reported. The mean fluorescence values detected for the control wells were 614 RFU at 10 seconds; 547 RFU at +5 minutes; 504 RFU at +10 minutes, and 438 RFU at +30 minutes.
Culture media (pH 7) containing 8′-fluoro-4′-methylumbelliferyl-[…]-D-glucopyranoside (0.1 mg/mL) was added to two wells (100 microliters per well) of a black 96-well microtiter plate with (NUNC #165301, Thermo Fisher Scientific). A 5 microliter aqueous suspension containing 5×10^3 Geobacillus stearothermophilus spores (ATCC 7953) was added to each well of the microtiter plate. Next, the contents of each well were mixed using a multiple aspiration/delivery sequence with the pipet. […] The top of the plate was covered with an optically clear sealing film (product #4311971, Applied Biosystems Corporation). The plate was warmed at 60° C. and shaken in a linear direction. Fluorescence readings (360 nm excitation/450 nm emission at 50% gain) were taken from the top of the plate. A reading was taken at an initial time point of 10 seconds and then at +1 minute intervals thereafter. A Synergy Neo2 fluorescence plate reader (BioTek Company) was used. In Table 2, the mean fluorescence values detected (RFU) at times of 10 seconds, +5 minutes, +10 minutes, and +30 minutes are reported. The mean fluorescence values detected for the control wells were 601 RFU at 10 seconds; 533 RFU at +5 minutes; 495 RFU at +10 minutes, and 430 RFU at +30 minutes.
Culture media (pH 8) containing 8′-fluoro-4′-methylumbelliferyl-[…]-D-glucopyranoside (0.1 mg/mL) was added to two wells (100 microliters per well) of a black 96-well microtiter plate with (NUNC #165301, Thermo Fisher Scientific). A 5 microliter aqueous suspension containing 5×10^3 Geobacillus stearothermophilus spores (ATCC 7953) was added to each well of the microtiter plate. Next, the contents of each well were mixed using a multiple aspiration/delivery sequence with the pipet. […] The top of the plate was covered with an optically clear sealing film (product #4311971, Applied Biosystems Corporation). The plate was warmed at 60° C. and shaken in a linear direction. Fluorescence readings (360 nm excitation/450 nm emission at 50% gain) were taken from the top of the plate. […]

[2] = tested on: Geobacillus stearothermophilus spores (ATCC 7953); test: as above; assay type: cell-based; conditions: substrate 0.1 mg/mL, 60° C.
[3] = pH 6 culture media, 5×10^3 spores
[4] = pH 6 culture media, 5×10^6 spores
[5] = pH 7 culture media, 5×10^3 spores
[6] = pH 7 culture media, 5×10^6 spores
[7] = pH 8 culture media, 5×10^3 spores
[8] = pH 8 culture media, 5×10^6 spores
[9] = pH 9 culture media, 5×10^3 spores
[10] = pH 9 culture media, 5×10^6 spores

Structure (SMILES) | MEASURED FLUORESCENCE, RFU 10 sec ([1]; pH 6 culture media) | MEASURED FLUORESCENCE, RFU +10 min ([1]; pH 6 culture media) | MEASURED FLUORESCENCE, RFU +5 min ([1]; pH 7 culture media) | MEASURED FLUORESCENCE, RFU +10 min ([1]; pH 7 culture media) | MEASURED FLUORESCENCE, RFU +30 min ([1]; pH 7 culture media) | MEASURED FLUORESCENCE, RFU +30 min ([1]; pH 8 culture media) | MEASURED FLUORESCENCE, RFU +5 min [2, 3] | MEASURED FLUORESCENCE, RFU +30 min [2, 3] | MEASURED FLUORESCENCE, RFU 10 sec [2, 4] | MEASURED FLUORESCENCE, RFU +5 min [2, 4] | MEASURED FLUORESCENCE, RFU +10 min [2, 4] | MEASURED FLUORESCENCE, RFU +30 min [2, 4] | MEASURED FLUORESCENCE, RFU 10 sec [2, 5] | MEASURED FLUORESCENCE, RFU 10 sec [2, 6] | MEASURED FLUORESCENCE, RFU +5 min [2, 6] | MEASURED FLUORESCENCE, RFU +10 min [2, 6] | MEASURED FLUORESCENCE, RFU +30 min [2, 6] | MEASURED FLUORESCENCE, RFU 10 sec [2, 7] | MEASURED FLUORESCENCE, RFU +5 min [2, 7] | MEASURED FLUORESCENCE, RFU +10 min [2, 7] | further results
Cc1cc(=O)oc2c(F)c(O[C@H]3O[C@H](CO)[C@@H](O)[C@H](O)[C@H]3O)ccc12 [Example 1, 8′-Fluoro-4′-methylumbelliferyl […]-D-glucopyranoside] | 806 RFU | 1909 RFU | 1474 RFU | 2681 RFU | 10190 RFU | 7477 RFU | 1212 RFU | 5600 RFU | 30514 RFU | 34348 RFU | 32547 RFU | 30518 RFU | 886 RFU | 49649 RFU | 54906 RFU | 52619 RFU | 49458 RFU | 729 RFU | 971 RFU | 1655 RFU | MEASURED FLUORESCENCE, RFU 10 sec [2, 8]: 39958 RFU; MEASURED FLUORESCENCE, RFU +5 min [2, 8]: 58746 RFU; MEASURED FLUORESCENCE, RFU +10 min [2, 8]: 58909 RFU; MEASURED FLUORESCENCE, RFU +30 min [2, 8]: 55069 RFU; MEASURED FLUORESCENCE, RFU 10 sec [2, 9]: 655 RFU; MEASURED FLUORESCENCE, RFU +5 min [2, 9]: 663 RFU; MEASURED FLUORESCENCE, RFU +10 min [2, 9]: 831 RFU; MEASURED FLUORESCENCE, RFU +30 min [2, 9]: 2910 RFU; MEASURED FLUORESCENCE, RFU 10 sec [2, 10]: 15513 RFU; MEASURED FLUORESCENCE, RFU +5 min [2, 10]: 39862 RFU; MEASURED FLUORESCENCE, RFU +10 min [2, 10]: 55056 RFU; MEASURED FLUORESCENCE, RFU +30 min [2, 10]: 52276 RFU
Cc1cc(=O)oc2cc(O[C@H]3O[C@H](CO)[C@@H](O)[C@H](O)[C@H]3O)c(F)cc12 [Example 6F-MUG, 6′-Fluoro-4′-methylumbelliferyl […]-D-glucopyranoside] | 886 RFU | 1903 RFU | 1130 RFU | 1855 RFU | 8708 RFU | 5638 RFU | 1200 RFU | 6663 RFU | 53357 RFU | 60972 RFU | 58039 RFU | 55966 RFU | 879 RFU | 67489 RFU | 80834 RFU | 78888 RFU | 75469 RFU | 825 RFU | 878 RFU | 1204 RFU | MEASURED FLUORESCENCE, RFU 10 sec [2, 8]: 49967 RFU; MEASURED FLUORESCENCE, RFU +5 min [2, 8]: 81623 RFU; MEASURED FLUORESCENCE, RFU +10 min [2, 8]: 85491 RFU; MEASURED FLUORESCENCE, RFU +30 min [2, 8]: 78890 RFU; MEASURED FLUORESCENCE, RFU 10 sec [2, 9]: 870 RFU; MEASURED FLUORESCENCE, RFU +5 min [2, 9]: 833 RFU; MEASURED FLUORESCENCE, RFU +10 min [2, 9]: 892 RFU; MEASURED FLUORESCENCE, RFU +30 min [2, 9]: 2376 RFU; MEASURED FLUORESCENCE, RFU 10 sec [2, 10]: 22519 RFU; MEASURED FLUORESCENCE, RFU +5 min [2, 10]: 56806 RFU; MEASURED FLUORESCENCE, RFU +10 min [2, 10]: 78179 RFU; MEASURED FLUORESCENCE, RFU +30 min [2, 10]: 76196 RFU
